Results taken from US20110053913A1, “Methods and Therapies for Alleviating Pain” (priority 2009, published 2011).

Columns and labels:
rats [1] = assay: Potentiation of morphine analgesia and acute morphine tolerance, tail flick and paw pressure tests; format: in vivo, rat
Protocol: (§1) Experiments were conducted using adult male Sprague-Dawley rats (Charles River, St. Constant, QC, Canada) weighing between 200-250 grams. Animals were housed individually in standard laboratory cages, maintained on a 12-hour light/dark cycle, and provided with food and water ad libitum. The surgical placement of chronic indwelling intrathecal catheters (polyethylene PE 10 tubing, 7.5 cm) into the spinal subarachnoid space was made under 4% halothane anesthesia, using the method of Yaksh and Rudy Physiol. Behav. 1976 7:1032-1036). Specifically, the anesthetized animal was placed prone in a stereotaxic frame, a small incision made at the back of the neck, and the atlanto-occipital membrane overlying the cisterna magna was exposed and punctured with a blunt needle. The catheter was inserted through the cisternal opening and slowly advanced caudally to position its tip at the lumbar enlargement. The rostral end of the catheter was exteriorized at the top of the head and the wound closed with sutures. Animals were allowed 3-4 days recovery from surgery and only those free from neurological deficits, such as the hindlimb or forelimb paralysis or gross motor dysfunction, were included in the study. All drugs were injected intrathecally as solutions dissolved in physiological saline (0.9%) through the exteriorized portion of the catheter at a volume of 10 μl followed by a 10 μl volume of 0.9% saline to flush the catheter.
(§2) The tail flick test (D'amour & Smith, J. Pharmacol. Exp. Ther. 1941 72:74-79) was used to measure the response to a thermal nociceptive stimulus. Radiant heat was applied to the distal third of the animal's tail and the response latency for tail withdrawal from the source was recorded using an analgesia meter (Owen et al., J. Pharmacol. Methods 1981 6:33-37)). The stimulus intensity was adjusted to yield baseline response latencies between 2-3 seconds. To minimize tail damage, a cutoff of 10 seconds was used as an indicator of maximum antinociception.
(§3) The paw pressure test (Loomis et al., Pharm. Biochem. 1987 26:131-139) was used to measure the response to a mechanical nociceptive stimulus. Pressure was applied to the dorsal surface of the hind paw using an inverted air-filled syringe connected to a gauge and the value at which the animal withdrew its paw was recorded. A maximum cutoff pressure of 300 mmHg was used to avoid tissue damage. Previous experience has established that there is no significant interaction between the tail flick and paw pressure tests (Loomis et al., Can. J. Physiol. Pharmacol. 1985 63:656-662).
The effects of ultra-low doses of atipemazole, yohimbine, idazoxan and mirtazapine, as well as the selective alpha-2A receptor antagonist BRL 44408, were also tested for potentiation of acute analgesic action of spinal or subcutaneous morphine. Acute opioid tolerance was induced by three serial intrathecal morphine injections (15 μg) or systemic morphine injections (2.5 mg/kg sc). Rats were administered morphine alone, a combination of morphine (15 μg intrathecally or 2.5 mg/kg sc) and an ultra low dose of atipemazole, yohimbine, idazoxan, mirtazapine, or BRL 44408. Results for atipemazole are depicted in FIGS. 2A, 2B, 11A and 11B. Results for yohimbine are depicted in FIGS. 6A and 6B. Results for idazoxan are depicted in FIGS. 10A and 10B. Results for mirtazapine are depicted in FIGS. 8A and 8B. Results for BRL 44408 are depicted in FIGS. 14A and 14B.
For the in vivo studies, tail flick and paw pressure values were converted to a maximum percentage effect (M.P.E.): M.P.E.=100×[post-drug response−baseline response]/[maximum response−baseline response]. Data represented in the figures are expressed as mean (±S.E.M.). The ED50 values were determined using a non-linear regression analysis (Prism 2, GraphPad Software Inc., San Diego, Calif., USA). […]

rats [2] = settings: morphine, cited from earlier work
rats [3] = assay: Analgesic effect of ultra-low dose alpha-2 receptor antagonist administered alone, tail flick and paw pressure tests; format: in vivo, rat
Protocol: Baseline latencies were obtained every 5 minutes for 15 minutes prior to injection of either vehicle (saline 0.9%) or atipemazole and tested every 30 minutes for 3 hours. Data were converted to % maximum possible effect.
as §1, §2, §3
The analgesic effect of an ultra-low dose of an alpha-2 receptor antagonist administered alone was examined. Atipemazole was administered systemically, in three successive administrations, at 20 ng/kg or 200 ng/kg.
The analgesic effect of an ultra-low dose of an alpha-2A receptor antagonist administered alone was also examined. BRL 44408 was administered intrathecally, in a single administration, at 1.65 ng. In another study, three successive doses of BRL 44408 (1.65 ng) were administered intrathecally.
For the in vivo studies, tail flick and paw pressure values were converted to a maximum percentage effect (M.P.E.): M.P.E.=100×[post-drug response−baseline response]/[maximum response−baseline response]. Data represented in the figures are expressed as mean (±S.E.M.). The ED50 values were determined using a non-linear regression analysis (Prism 2, GraphPad Software Inc., San Diego, Calif., USA). Statistical significance (p<0.05, 0.01. or 0.001) was determined using a one-way analysis of variance followed by a Student Newman-Keuls post hoc test for multiple comparisons between groups.

rats [4] = assay: Formalin test, persistent inflammatory pain model; format: in vivo, rat; settings: atipemazole alone sc 20 minutes prior to 1% formalin into hind paw; dark phase; N=4; FIGS. 15A, 15B
Protocol: In a further experiment, the analgesic effect of atipemazole was examined using the formalin test, a persistent inflammatory pain model. The experiment was conducted with rats during the dark phase of the light-dark cycle. Rats were administered 1% formalin and pain behaviour was assessed by a weighted score. Atipemazole, morphine, or vehicle was injected by subcutaneous injection 20 minutes prior to formalin injection into the plantar surface of the rat hind paw. The behavior was evaluated in 5 min intervals, and the severity of the response was determined.
The formalin test is a widely used tonic model of continuous pain resulting from formalin-induced tissue injury. It is a useful model, particularly for the screening of novel compounds, since it encompasses inflammatory, neurogenic, and central mechanisms of nociception. We used 1% formalin and assessed pain behavior by a weighted score. […]
Briefly, the nociceptive behavior was assessed as follows: (1) no favouring of the injected hind paw, (2) favouring, (3) complete elevation of the hind paw from the floor, and (4) licking or flinching. The behavior was evaluated in 5 min intervals, and the severity of the response was determined by the following formula: (0×the time spent in category 1, 1×the time spent in category 2, 2×the time spent in category 3, 3×the time spent in category 4).

spinal alpha-2 receptors = assay: Inhibition of spinal clonidine analgesia by alpha-2 receptor antagonists (tail flick / paw pressure); format: in vivo, rat; settings: tail flick test, FIG. 12
Protocol: Experiments were conducted using adult male Sprague-Dawley rats (Charles River, St. Constant, QC, Canada) weighing between 200-250 grams. Animals were housed individually in standard laboratory cages, maintained on a 12-hour light/dark cycle, and provided with food and water ad libitum. The surgical placement of chronic indwelling intrathecal catheters (polyethylene PE 10 tubing, 7.5 cm) into the spinal subarachnoid space was made under 4% halothane anesthesia, using the method of Yaksh and Rudy Physiol. Behav. 1976 7:1032-1036). […]
The tail flick test (D'amour & Smith, J. Pharmacol. Exp. Ther. 1941 72:74-79) was used to measure the response to a thermal nociceptive stimulus. Radiant heat was applied to the distal third of the animal's tail and the response latency for tail withdrawal from the source was recorded using an analgesia meter (Owen et al., J. Pharmacol. Methods 1981 6:33-37)). […]
The paw pressure test (Loomis et al., Pharm. Biochem. 1987 26:131-139) was used to measure the response to a mechanical nociceptive stimulus. Pressure was applied to the dorsal surface of the hind paw using an inverted air-filled syringe connected to a gauge and the value at which the animal withdrew its paw was recorded. […]

Structure (SMILES): CN1CC[C@]23c4c5ccc(O)c4O[C@H]2[C@@H](O)C=C[C@H]3[C@H]1C5 [morphine]
- analgesic response to repeated morphine (rats [1]; morphine 2.5 mg/kg sc alone, three injections at 90 minute intervals, both tests, FIGS. 11A, 11B): rapid decay of the analgesic response
- decline of the analgesic effect of morphine observed after the first injection (rats [1]; three successive intrathecal doses of morphine 15 μg at 90 minute intervals, end of the 240 minute test period, FIGS. 2A, 2B): ~80%
- ED50 dose during the dark phase (rats [2]; dark phase of light-dark cycle): 0.25 mg/kg
- ED50 dose during the light phase (rats [2]; light phase of light-dark cycle): 5 mg/kg
- potency in the dark phase compared to the light phase (rats [2]; nociceptive testing): 10 fold

Structure (SMILES): CCC1(c2cnc[nH]2)Cc2ccccc2C1 [atipemazole]
- effect on acute tolerance to the analgesic actions of spinal morphine (rats [1]; atipemazole 0.8 ng with morphine 15 μg intrathecally, three injections at 90 minute intervals, FIGS. 2A, 2B): prevented the decline of the analgesic effect of morphine
- effect on acute morphine analgesia (rats [1]; atipemazole 0.8 or 0.08 ng with morphine 15 μg intrathecally, FIGS. 3A, 3B): potentiates opioid analgesia
- effect on acute tolerance to morphine (loss of response) (rats [1]; atipemazole 20 or 200 ng/kg sc with morphine 2.5 mg/kg sc, three injections at 90 minute intervals, FIGS. 11A, 11B): significantly reduced the loss of response to morphine alone
- analgesic response, antagonist alone, repeated administration (rats [3]; atipemazole 0.8 ng intrathecally alone at 90 minute intervals, FIGS. 2A, 2B): incremental but weak analgesic response
- analgesic effect, antagonist alone (rats [3]; atipemazole 0.8 ng intrathecally alone, FIGS. 3A, 3B): weak, albeit insignificant, analgesic effect
- antinociceptive effect in the tail flick test, dark phase (rats [3]; atipemazole 200 ng/kg sc, rats on reverse light/dark cycle, administered during the dark phase, tested every 30 minutes for 3 hours): did not produce a significant antinociceptive effect
- analgesic response in the tail flick test, antagonist alone (rats [3]; atipemazole 20 and 200 ng/kg sc alone at 90 minute intervals, tail flick, FIG. 11A): delayed analgesic response
- analgesia in the formalin test (weighted pain score) (rats [4]): as effective as morphine

Structure (SMILES): CC1c2ccccc2CN1CC1=NCCN1.O=C(O)/C=C\C(=O)O (stereo not drawn) [BRL 44408, 2-[2H-(1-Methyl-1,3-dihydroisoindole)methyl]-4,5-dihydroimidazole maleate]
- antagonism of clonidine analgesia (spinal alpha-2 receptors; BRL 44408 3.3 μg with clonidine 13.3 μg intrathecally): did not antagonize clonidine
- antagonism of clonidine analgesia (spinal alpha-2 receptors; BRL 44408 16.5 μg with clonidine 13.3 μg intrathecally): antagonized clonidine analgesia
- effect on morphine analgesia after a single administration (rats [1]; BRL 44408 1.65 ng with morphine 15 μg intrathecally once, relative to morphine alone, FIGS. 13A, 13B): significantly increased morphine analgesia
- effect on analgesic action of morphine in the acute tolerance study (rats [1]; BRL 44408 1.65 ng with morphine intrathecally, three injections at 90 minute intervals, FIGS. 14A, 14B): increased the acute analgesic action of morphine
- analgesia after a single administration, antagonist alone (rats [3]; BRL 44408 1.65 ng intrathecally alone, single administration, relative to saline, FIGS. 13A, 13B): significant analgesia, relative to saline administration, after 60 minutes
- course and duration of analgesia after a single administration, antagonist alone (rats [3]; BRL 44408 1.65 ng intrathecally alone, single administration, FIGS. 13A, 13B): increased and persisted for the duration of the study (180 minutes)

Structure (SMILES): c1ccc2c(c1)OCC(C1=NCCN1)O2 (stereo not drawn) [idazoxan]
- analgesic response, antagonist alone, repeated administration (rats [3]; idazoxan intrathecally alone, ultra-low dose, repeated): no significant analgesic response

Structure (SMILES): COC(=O)[C@@H]1[C@H]2C[C@H]3c4[nH]c5ccccc5c4CCN3C[C@@H]2CC[C@@H]1O [yohimbine]
- analgesic response, antagonist alone, repeated administration (rats [3]; yohimbine 0.024 ng intrathecally alone at 90 minute intervals, FIGS. 6A, 6B): no significant analgesic response
